Test results from patent US7456133B2, “Substituted arylketones” (Bayer CropScience AG, priority 2001, dated 2008).

Tests used:
weeds [1] = assay: Pre-emergence test, damage to weeds; assay type: in vivo; conditions: soil sprayed 24 hours after sowing, rated after three weeks
Procedure: Solvent: 5 parts by weight of acetone
(§1) Emulsifier: 1 part by weight of alkylaryl polyglycol ether
(§2) To produce a suitable preparation of active compound, 1 part by weight of active compound is mixed with the stated amount of solvent, the stated amount of emulsifier is added and the concentrate is diluted with water to the desired concentration.
Seeds of the test plants are sown in normal soil. After 24 hours, the soil is sprayed with the preparation of active compound such that the particular amount of active compound desired is applied per unit area. The concentration of active compound in the spray liquor is chosen such that the particular amount of active compound desired is applied in 1000 litres of water per hectare.
(§3) After three weeks, the degree of damage to the plants is rated in % damage in comparison to the development of the untreated control. The figures denote: • 0%=no effect (like untreated control) • 100%=total destruction

weeds [2] = assay: Post-emergence test, damage to weeds; assay type: in vivo; conditions: test plants of 5-15 cm sprayed, rated after three weeks
Procedure: Solvent: 5 part by weight of acetone
as §1, §2
Test plants of a height of 5-15 cm are sprayed with the preparation of active compound such that the particular amounts of active compound desired are applied per unit area. The concentration of the spray liquor is chosen such that the particular amounts of active compound desired are applied in 1000 l of water/ha.
as §3

[3] = Log P by reversed-phase HPLC (C 18), acidic range; assay type: physicochemical; conditions: reversed-phase HPLC column (C 18); given in the preparation examples, acidic or neutral range not given
Procedure: Log P values given in the tables were determined in accordance with EEC Directive 79/831 Annex V.A8 by HPLC (High Performance Liquid Chromatography) using a reversed-phase column (C 18). Temperature: 43° C. (a) Mobile phases for the determination in the acidic range: 0.1% aqueous phosphoric acid, acetonitrile; linear gradient from 10% acetonitrile to 90% acetonitrile—the corresponding measurement results in Tables 1 and 2 are labelled^a).

Compound | activity against weeds (weeds [1]) | activity against weeds (weeds [2]) | chromatographic logP [3]
CCn1ncc(C(=O)c2ccc(Cl)c(OCCNC(C)=O)c2Cl)c1O [Example I-2-1, N-(2-{2,6-dichloro-3-[(1-ethyl-5-hydroxy-1H-pyrazol-4-yl)-carbonyl]-phenoxy}-ethyl)-acetamide] | strong activity | strong activity | 1.41
CC(C)NC(=S)NCc1c(Cl)ccc(C(=O)C2=C(O)CCCC2=O)c1Cl [Example I-2-3] | strong activity | strong activity | 2.74
